According to PubChem BioAssay (NCI):
“And” between values parts separate entries of the source, which are not always exact repeats. Identical values can stand only once.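 These data come from cells grown in 96-well plates and exposed to compound for 48 hours at five concentrations. At the GI50, growth is halved. The concentration for full growth arrest is given as TGI.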

Key:
Assay in all cases: NCI tumour cell line growth inhibition, 48 h
OVCAR-8 ovarian = tested on: OVCAR-8 ovarian
DMS 273 small cell lung = tested on: DMS 273 small cell lung
NCI-H522 lung = tested on: NCI-H522 lung
CAKI-1 renal = tested on: CAKI-1 renal
HCT-116 colon = tested on: HCT-116 colon
OVCAR-4 ovarian = tested on: OVCAR-4 ovarian
XF 498 CNS = tested on: XF 498 CNS
SK-MEL-5 melanoma = tested on: SK-MEL-5 melanoma
MOLT-4 leukemia = tested on: MOLT-4 leukemia
SN12C renal = tested on: SN12C renal
SNB-78 CNS = tested on: SNB-78 CNS
DMS 114 small cell lung = tested on: DMS 114 small cell lung
SNB-75 CNS = tested on: SNB-75 CNS
HT29 colon = tested on: HT29 colon
NCI-H460 lung = tested on: NCI-H460 lung

C/C(=C\COc1ccc2ccc(=O)oc2c1)C1=CC(=O)C(C)(C)O1
GI50 (OVCAR-8 ovarian): 2.18 µM | TGI (DMS 273 small cell lung): 27.9 µM | GI50 (NCI-H522 lung): 2.37 µM and 0.804 µM | TGI (NCI-H522 lung): 7.73 µM and 3.76 µM | GI50 (CAKI-1 renal): 3.77 µM | TGI (CAKI-1 renal): 14.6 µM and 19.8 µM | GI50 (HCT-116 colon): 2.84 µM | TGI (HCT-116 colon): 7.57 µM and 6.64 µM | GI50 (OVCAR-4 ovarian): 4.3 µM | TGI (OVCAR-4 ovarian): 24.8 µM and 7.56 µM | TGI (XF 498 CNS): 7.74 µM | GI50 (SK-MEL-5 melanoma): 2.72 µM | TGI (SK-MEL-5 melanoma): 13.3 µM and 6.95 µM | GI50 (MOLT-4 leukemia): 3.25 µM | TGI (MOLT-4 leukemia): 15 µM and 20.2 µM | GI50 (SN12C renal): 3.34 µM | TGI (SN12C renal): 14.1 µM and 10.8 µM | TGI (SNB-78 CNS): 61.3 µM | TGI (DMS 114 small cell lung): 9.44 µM | GI50 (SNB-75 CNS): 3.55 µM | TGI (SNB-75 CNS): 14.6 µM and 15.4 µM | GI50 (HT29 colon): 3.55 µM | TGI (HT29 colon): 13.3 µM and 7.83 µM | GI50 (NCI-H460 lung): 2.61 µM and 4.07 µM | TGI (NCI-H460 lung): 6.29 µM and 11.5 µM
